Source: patent US7074770B1, “Method of DNA vaccination” (SmithKline Beecham Corporation, priority 1998, dated 2006)
“Also recorded” adds a separate entry of the source. Like-named read-outs stand apart in the source and are kept apart here.

Legend:
S6C-E4 tumour cells = assay: Tumour outgrowth inhibition in vivo after EBNA-4 plasmid immunisation; set-up: species or system ACA mice; settings: i.m. 40 μg E4 x3, tucaresol 200 μg s.c. days 1-4; challenge with S6C-E4 s.c.; FIG. 7
Description: Groups of ACA mice were immunised three times with p3, E4 or E4,T, and were subsequently challenged with […] S6C tumour cells. Mice were sacrificed when tumour diameter reached 20 mm.
Epstein Barr virus has been implicated in some cancers. We analysed the effect of tucaresol on tumour outgrowth inhibition in vivo as a result of pDNA vaccination with a plasmid expressing EBNA-4 (FIG. 7). Mice were immunised by intramuscular injection with 40 μg of either control mock plasmid pCDNA3 (P3), plasmid expressing EBNA-4 (E4) or plasmid expressing EBNA-4 followed 1, 2, 3 and 4 days later with administration of 200 μg of tucaresol s.c.—i.e. 800 μg total tucaresol per mouse (E4T). This immunisation schedule was repeated 1 month and 2 months after the initial immunisation. Two weeks after the last immunisation mice were challenged with […] S6C-E4 tumour cells s.c. Mice were sacrificed when the tumour reached a 20 mm diameter.

CD4 Th-cells = settings: previously reported (22); cited from earlier work
[1] = test system: splenocytes re-stimulated with NP peptide; type: in vivo, C57BL/6 mice; settings: pVAC1.PR gene gun
[2] = test system: EL4 cells pulsed with H-2 Db-restricted NP peptide; assay: Lytic CTL response after gene gun NP DNA immunisation (europium release); type: in vivo, C57Bl/6 mice; settings: gene gun NP plasmid 10 ng; tucaresol s.c. 1 mg or oral 15 mg/kg x5 days; FIG. 9
Description: C57B1/6 mice were immunised with plasmid DNA encoding the influenza virus nucleoprotein with or without tucaresol given subcutaneously (FIG. 9a) or orally (FIG. 9b). Splenocytes were restimulated in-vitro with A/PR8/34 virus. Standard europium release techniques were used to determine specific lysis of MHC matched target cells pulsed with H-2 D^b-restricted NP peptide.
C57BI/6 mice were immunised with plasmid DNA (10 ng) encoding the influenza virus nucleoprotein (NP) with and without tucaresol given sub-cutaneously (sc). Mice were killed 14 days post-immunisation and restimulated in-vitro (5 days) with irradiated splenocytes pulsed with virus (A/PR8/34). Standard europium release techniques were used to determine specific lysis of MHC-matched target cells (EL4 cells) pulsed with H-2 D^b-restricted NP peptide. Non-specific lysis was less than 15% for all controls. Tucaresol was given subcutaneously (1 mg) at the site of intrepidermal gene-gun immunisation.
C57B1/6 mice were immunised with plasmid DNA (10 ng) encoding the influenza virus nucleoprotein (NP) with and without tucaresol given orally. Mice were killed 14 days post-immunisation and restimulated in-vitro (5 days) with irradiated splenocytes pulsed with virus (A/PR8/34). Standard europium release techniques were used to determine specific lysis of EL4 cells pulsed with H-2D^b-restricted NP peptide. […]

[3] = test system: mycobacterial hsp65 (M.hsp65); type: in vivo, mice
[4] = test system: Jk-A2/kb target cells pulsed with M.hsp65 peptide; type: in vivo, HLA A2 transgenic mice
[5] = test system: lymph node T cells (response to ovalbumin peptide); assay: T-cell priming after gene gun DNA immunisation (pVAC1.Ova) with conventional adjuvants; type: in vivo, mice; settings: gene gun pVAC1.Ova with or without adjuvants given s.c.; 3 days later
From the text: Proliferation of lymph node T cells in response to pDNA or DNA encoding ovalbumin (PVAC1.Ova) in isolation and in combination with adjuvants LPS, CFA, GM-CSF and Heat-Killed Listeria monocytogenes (HKLM).
Lymphoid cells from TCR-transgenic mice, expressing a receptor specific for an ovalbumin antigen were transferred into normal syngeneic mice. These mice were then immunised subcutaneously (by means of gene gun) with plasmid DNA (pVAC1) or with plasmid DNA construct encoding ovalbumin (pVAC1.Ova) with or without adjuvants given subcutaneously. Three days later, regional lymph node cells were removed and their proliferative response to ovalbumin peptide was measured by means of incorporation of tritiated thymidine into DNA. This provides a measure of the degree of specific T-cell priming that occurred in vivo in response to immunisation. […] However, in contrast to the conventional peptide immunisation, none of the adjuvants were able to enhance this response to DNA immunisation.

Row | Molecule | tumour outgrowth inhibition (S6C-E4 tumour cells) | CD4 Th-cell response (CD4 Th-cells) | CTL cytokine response (IFNγ positive cells per 10e6 splenocytes) ([1]; tucaresol oral gavage 15 mg/kg daily for 5 days) | CTL cytokine response (IFNγ positive cells per 10e6 splenocytes) ([1]; tucaresol s.c. 2×1 mg at site of DNA vaccination) | lytic CTL response (specific lysis) [2] | IgG2a anti-M.hsp65 antibody response (Th1 associated) ([3]; FIG. 3b) | IgG1 anti-M.hsp65 antibody response (Th2 associated) ([3]; compared to p3 immunised mice, FIG. 3c) | specific antibody response with control plasmid ([3]; control plasmid p3 and tucaresol (p3, T)) | anti-M.hsp65 antibody (IgG) titres ([3]; i.m. 20 μg p3M.65, tucaresol 1 mg s.c. simultaneously or cytokine plasmids equimolar, FIG. 3a) | CTL activity against target cells pulsed with the cognate M.hsp65 epitope ([4]; immunised twice, splenocytes stimulated with peptide, FIG. 6) | lytic activity against Jk-A2/kb cells unpulsed or pulsed with control influenza peptide ([4]; mouse, in vivo) | T-cell priming in response to DNA immunisation [5]
1 | O=Cc1c(O)cccc1OCc1ccc(C(=O)O)cc1 [tucaresol, 4-(2-formyl-3-hydroxyphenoxymethyl)benzoic acid] | significantly enhances; also recorded: markedly enhanced | enhanced CD4 Th-cell response, selectively favouring a Th 1-type profile over Th 2 | doubling of the response | small but significant increase | Enhances | significantly (P=0.003) increased; also recorded: strongly enhanced | did also induce | no increase in the specific antibody response | markedly increased; also recorded: comparable to the effect of the GM-CSF plasmid | high CTL activity; also recorded: markedly enhanced | much lower | –
2 | GM-CSF: GM-CSF given as adjuvant with DNA immunisation (protein, UniProt P01587 18-141, looked up) Granulocyte-macrophage …: APTRSPITVTRPWKHVEAIKEALNLLDDMPVTLNEEVEVVSNEFSFKKLTCVQTRLKIFEQGLRGNFTKLKGALNMTASYYQTYCPPTPETDCETQVTTYADFIDSLKTFLTDIPFECKKPGQK | – | – | – | – | – | – | – | – | – | – | – | failed to enhance the response
